According to PubChem BioAssay AID328 (DTP/NCI, 2004):
Values joined by “and” are separate entries in the source; they are usually repeats but may differ in a detail not shown here. Equal entries are not always repeated. Toxic doses and inconclusive results are not listed.

Tested on: BDF1 mice, P388 leukemia ip, median survival T/C
Assay: NCI In Vivo Anticancer Drug Screen. Data for tumor model P388 Leukemia (intraperitoneal) in B6D2F1 (BDF1) mice
Details: endpoint: median survival time, higher = longer survival
How it was run: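 Mice carrying the transplantable tumour receive compound or vehicle. Survival is followed in each arm, and the treated measure is divided by the vehicle measure.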

[1] = dose: 50.0 mg/kg/injection, schedule: Q01DX009 (ip), vehicle: saline
[2] = dose: 100.0 mg/kg/injection, schedule: Q01DX009 (ip), vehicle: saline
[3] = dose: 50.0 mg/kg/injection, schedule: Q01DX009 (ip), vehicle: water
[4] = dose: 100.0 mg/kg/injection, schedule: Q01DX009 (ip), vehicle: water
[5] = dose: 200.0 mg/kg/injection, schedule: Q01DX009 (ip), vehicle: water
[6] = dose: 400.0 mg/kg/injection, schedule: Q01DX009 (ip), vehicle: water
[7] = dose: 25.0 mg/kg/injection, schedule: Q01DX009 (ip), vehicle: saline
[8] = dose: 45.0 mg/kg/injection, schedule: Q04DX003 (ip), vehicle: saline with Tween-80
[9] = dose: 100.0 mg/kg/injection, schedule: Q04DX003 (ip), vehicle: saline with Tween-80
[10] = dose: 200.0 mg/kg/injection, schedule: Q04DX003 (ip), vehicle: saline with Tween-80
[11] = dose: 400.0 mg/kg/injection, schedule: Q04DX003 (ip), vehicle: saline with Tween-80

CC(NC(=O)OCc1ccccc1)C(=O)NCCN(C)C (stereo not given)
T/C (dose: 50.0 mg/kg/injection, schedule: Q01DX005 (ip), vehicle: saline): 100 % of control | T/C (dose: 100.0 mg/kg/injection, schedule: Q01DX005 (ip), vehicle: saline): 91 % of control | T/C (dose: 200.0 mg/kg/injection, schedule: Q01DX005 (ip), vehicle: saline): 100 % of control

CN(C)C(=S)NN
T/C (dose: 0.25 mg/kg/injection, schedule: Q01DX009 (ip), vehicle: saline with Tween-80): 90 % of control | T/C (dose: 0.5 mg/kg/injection, schedule: Q01DX009 (ip), vehicle: saline with Tween-80): 90 % of control | T/C (dose: 0.78 mg/kg/injection, schedule: Q04DX003 (ip), vehicle: saline with Tween-80): 100 % of control | T/C (dose: 1.0 mg/kg/injection, schedule: Q01DX009 (ip), vehicle: saline with Tween-80): 95 % of control | T/C (dose: 1.56 mg/kg/injection, schedule: Q04DX003 (ip), vehicle: saline with Tween-80): 105 % of control | T/C (dose: 3.12 mg/kg/injection, schedule: Q04DX003 (ip), vehicle: saline with Tween-80): 95 % of control and 105 % of control

CC1=CP(=O)(O)CC1
T/C [1]: 95 % of control | T/C [2]: 95 % of control

CCN(CC)c1cccc(N)c1
T/C (dose: 50.0 mg/kg/injection, schedule: Q01DX009 (sc), vehicle: olive oil, sesame oil, peanut oil): 104 % of control | T/C (dose: 50.0 mg/kg/injection, schedule: Q04DX003 (sc), vehicle: olive oil, sesame oil, peanut oil): 100 % of control | T/C (dose: 100.0 mg/kg/injection, schedule: Q01DX009 (sc), vehicle: olive oil, sesame oil, peanut oil): 87 % of control | T/C (dose: 100.0 mg/kg/injection, schedule: Q04DX003 (sc), vehicle: olive oil, sesame oil, peanut oil): 104 % of control | T/C (dose: 200.0 mg/kg/injection, schedule: Q04DX003 (sc), vehicle: olive oil, sesame oil, peanut oil): 100 % of control

O=C1C=CC(=O)N1Cc1ccco1
T/C [1]: 100 % of control | T/C [2]: 91 % of control and 95 % of control | T/C (dose: 200.0 mg/kg/injection, schedule: Q01DX009 (ip), vehicle: saline): 100 % of control | T/C (dose: 400.0 mg/kg/injection, schedule: Q01DX009 (ip), vehicle: saline): 91 % of control

COCc1cnc2nc(N)nc(N)c2n1
T/C (dose: 3.13 mg/kg/injection, schedule: Q01DX009 (ip), vehicle: other): 116 % of control

O=C(Cc1ccccc1)Cc1ccccc1
T/C (dose: 25.0 mg/kg/injection, schedule: Q01DX009 (ip), vehicle: water): 99 % of control | T/C [3]: 99 % of control | T/C [4]: 90 % of control | T/C [5]: 97 % of control | T/C (dose: 200.0 mg/kg/injection, schedule: Q04DX003 (ip), vehicle: water): 97 % of control and 100 % of control | T/C (dose: 300.0 mg/kg/injection, schedule: Q04DX003 (ip), vehicle: water): 89 % of control and 97 % of control | T/C [6]: 109 % of control | T/C (dose: 400.0 mg/kg/injection, schedule: Q04DX003 (ip), vehicle: water): 93 % of control and 100 % of control | T/C (dose: 500.0 mg/kg/injection, schedule: Q04DX003 (ip), vehicle: water): 108 % of control | T/C (dose: 600.0 mg/kg/injection, schedule: Q04DX003 (ip), vehicle: water): 98 % of control

NCC(=O)O.[Cl][Ga]([Cl])[Cl]
T/C [7]: 120 % of control

CN(C)C(=S)Sc1ccc([N+](=O)[O-])cc1[N+](=O)[O-]
T/C (dose: 100.0 mg/kg/injection, schedule: Q01DX001 (ip), vehicle: Klucel (hydroxypropylcellulose) (HPC)): 100 % of control | T/C (dose: 100.0 mg/kg/injection, schedule: Q04DX003 (ip), vehicle: Klucel (hydroxypropylcellulose) (HPC)): 100 % of control | T/C (dose: 200.0 mg/kg/injection, schedule: Q01DX001 (ip), vehicle: Klucel (hydroxypropylcellulose) (HPC)): 100 % of control | T/C (dose: 200.0 mg/kg/injection, schedule: Q04DX003 (ip), vehicle: Klucel (hydroxypropylcellulose) (HPC)): 104 % of control | T/C (dose: 400.0 mg/kg/injection, schedule: Q01DX001 (ip), vehicle: Klucel (hydroxypropylcellulose) (HPC)): 100 % of control | T/C (dose: 400.0 mg/kg/injection, schedule: Q04DX003 (ip), vehicle: Klucel (hydroxypropylcellulose) (HPC)): 108 % of control

O=C(Cn1ccc(=O)[nH]c1=O)N1CCOCC1
T/C [4]: 104 % of control | T/C [5]: 104 % of control | T/C [6]: 95 % of control

CC(=O)NCCSC(=O)C(=O)SCCNC(C)=O
T/C (dose: 75.0 mg/kg/injection, schedule: Q01DX009 (ip), vehicle: Klucel (hydroxypropylcellulose) (HPC)): 100 % of control | T/C (dose: 150.0 mg/kg/injection, schedule: Q01DX009 (ip), vehicle: Klucel (hydroxypropylcellulose) (HPC)): 95 % of control

CC1CN1S(=O)(=O)N1CC1C (stereo not given)
T/C (dose: 3.75 mg/kg/injection, schedule: Q01DX009 (ip), vehicle: saline with Tween-80): 100 % of control | T/C (dose: 7.5 mg/kg/injection, schedule: Q01DX009 (ip), vehicle: saline with Tween-80): 112 % of control | T/C (dose: 15.0 mg/kg/injection, schedule: Q01DX009 (ip), vehicle: saline with Tween-80): 158 % of control | T/C (dose: 16.5 mg/kg/injection, schedule: Q04DX003 (ip), vehicle: saline with Tween-80): 113 % of control | T/C (dose: 25.0 mg/kg/injection, schedule: Q04DX003 (ip), vehicle: saline with Tween-80): 154 % of control and 213 % of control | T/C (dose: 30.0 mg/kg/injection, schedule: Q01DX009 (ip), vehicle: saline with Tween-80): 258 % of control | T/C (dose: 37.5 mg/kg/injection, schedule: Q04DX003 (ip), vehicle: saline with Tween-80): 204 % of control

C=CCCc1cc(C(=O)N(c2ccccc2)C(C(=O)O)c2ccccc2)ccc1OC (stereo not given)
T/C (dose: 100.0 mg/kg/injection, schedule: Q04DX002 (ip), vehicle: saline with Tween-80): 101 % of control | T/C (dose: 200.0 mg/kg/injection, schedule: Q04DX002 (ip), vehicle: saline with Tween-80): 100 % of control | T/C (dose: 400.0 mg/kg/injection, schedule: Q04DX002 (ip), vehicle: saline with Tween-80): 108 % of control

CN(N=O)C(=O)Nc1ccc(C(=O)O)cc1
T/C (dose: 29.0 mg/kg/injection, schedule: Q04DX003 (ip), vehicle: saline with Tween-80): 159 % of control | T/C [8]: 163 % of control | T/C (dose: 66.0 mg/kg/injection, schedule: Q04DX003 (ip), vehicle: saline with Tween-80): 170 % of control | T/C [9]: 250 % of control | T/C (dose: 150.0 mg/kg/injection, schedule: Q04DX003 (ip), vehicle: saline with Tween-80): 240 % of control

CN(C)c1ccc2c(N(C)C)cc(N(C)C)nc2c1
T/C (dose: 12.5 mg/kg/injection, schedule: Q01DX009 (ip), vehicle: Klucel (hydroxypropylcellulose) (HPC)): 111 % of control | T/C (dose: 25.0 mg/kg/injection, schedule: Q01DX009 (ip), vehicle: Klucel (hydroxypropylcellulose) (HPC)): 89 % of control | T/C (dose: 50.0 mg/kg/injection, schedule: Q01DX009 (ip), vehicle: Klucel (hydroxypropylcellulose) (HPC)): 120 % of control

CCOC(=O)C1=C(O)c2c(sc(C)c2C)N(S(=O)(=O)c2ccc(C)cc2)CC1
T/C (dose: 25.0 mg/kg/injection, schedule: Q01DX009 (ip), vehicle: saline with Tween-80): 90 % of control | T/C (dose: 50.0 mg/kg/injection, schedule: Q01DX009 (ip), vehicle: saline with Tween-80): 113 % of control | T/C (dose: 50.0 mg/kg/injection, schedule: Q04DX003 (ip), vehicle: saline with Tween-80): 91 % of control | T/C (dose: 100.0 mg/kg/injection, schedule: Q01DX009 (ip), vehicle: saline with Tween-80): 104 % of control | T/C [9]: 91 % of control | T/C (dose: 200.0 mg/kg/injection, schedule: Q01DX009 (ip), vehicle: saline with Tween-80): 109 % of control | T/C [10]: 91 % of control | T/C [11]: 100 % of control

Cc1cc(NC(=O)NCc2ccc(N3C(N)=NC(N)=NC3(C)C)cc2)ccc1S(=O)(=O)F
T/C (dose: 2.1 mg/kg/injection, schedule: Q01DX009 (ip), vehicle: saline with Tween-80): 108 % of control | T/C (dose: 3.1 mg/kg/injection, schedule: Q01DX009 (ip), vehicle: saline with Tween-80): 113 % of control | T/C (dose: 4.8 mg/kg/injection, schedule: Q01DX009 (ip), vehicle: saline): 123 % of control | T/C [7]: 172 % of control | T/C [8]: 150 % of control | T/C [1]: 209 % of control | T/C (dose: 100.0 mg/kg/injection, schedule: Q04DX003 (ip), vehicle: alcohol): 115 % of control | T/C (dose: 264.0 mg/kg/injection, schedule: Q04DX003 (ip), vehicle: saline): 195 % of control | T/C (dose: 400.0 mg/kg/injection, schedule: Q04DX003 (ip), vehicle: alcohol): 155 % of control

O=C1c2ccccc2C(=O)c2cc3c(cc21)CCCC3
T/C [3]: 94 % of control | T/C [4]: 87 % of control | T/C [6]: 96 % of control | T/C (dose: 800.0 mg/kg/injection, schedule: Q01DX009 (ip), vehicle: water): 107 % of control

Cc1cc(=O)[nH]c(N/N=C/c2ccc(N(CCCl)CCCl)cc2)n1
T/C [9]: 95 % of control | T/C [10]: 86 % of control | T/C [11]: 95 % of control
